Assay [1] deals with T1, AR(W741L) (Homo sapiens, UniProt P10275, W742L).
T1 construct: expressed in transfected cells; host or cells: HEK293
T1 sequence (P10275 1-920 W742L): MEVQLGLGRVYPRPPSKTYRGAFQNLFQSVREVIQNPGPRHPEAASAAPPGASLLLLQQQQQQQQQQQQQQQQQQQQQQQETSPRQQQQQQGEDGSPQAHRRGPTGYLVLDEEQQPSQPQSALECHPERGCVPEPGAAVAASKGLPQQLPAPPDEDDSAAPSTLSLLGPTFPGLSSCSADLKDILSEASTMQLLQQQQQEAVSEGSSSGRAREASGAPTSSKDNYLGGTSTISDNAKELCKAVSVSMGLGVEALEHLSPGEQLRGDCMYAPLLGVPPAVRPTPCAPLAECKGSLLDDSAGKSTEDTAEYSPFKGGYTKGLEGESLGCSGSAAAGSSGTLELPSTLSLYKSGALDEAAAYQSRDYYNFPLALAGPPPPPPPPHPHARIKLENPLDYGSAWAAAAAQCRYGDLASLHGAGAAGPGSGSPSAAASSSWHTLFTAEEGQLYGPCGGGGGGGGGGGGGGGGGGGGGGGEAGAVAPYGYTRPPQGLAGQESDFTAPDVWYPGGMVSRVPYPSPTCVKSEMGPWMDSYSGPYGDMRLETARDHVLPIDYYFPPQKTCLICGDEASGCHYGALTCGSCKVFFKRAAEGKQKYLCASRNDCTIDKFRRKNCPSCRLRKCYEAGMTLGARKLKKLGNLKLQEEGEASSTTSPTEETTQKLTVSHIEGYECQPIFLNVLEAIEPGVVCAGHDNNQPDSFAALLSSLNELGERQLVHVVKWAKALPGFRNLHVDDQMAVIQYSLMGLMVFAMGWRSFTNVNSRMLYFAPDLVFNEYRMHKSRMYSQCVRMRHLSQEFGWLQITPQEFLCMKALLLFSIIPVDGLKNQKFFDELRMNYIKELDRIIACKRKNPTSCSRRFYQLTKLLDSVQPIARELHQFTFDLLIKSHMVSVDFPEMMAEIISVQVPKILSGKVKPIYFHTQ
Nature of the assay: Mutant AR antagonistic activity test, W741L (reporter gene in HEK293 cells). As to conditions: for IC50: HEK293 cells, DHT 10 nM, 24 hours, read-out: W741L IC50(nM) 1st gen AR antagonist resistant mutation. The class given is cell-based. As to the method:
(§1) HEK293 cells were cultured in DMEM supplemented with 10% FBS and 1% GlutaMax at 37° C. with 5% CO2. The day before transfection, the medium was changed to DMEM containing 10% charcoal-stripped FBS and 1% GlutaMax. […] The cell suspension was diluted with cell seeding solution, and the transfection reagent was added to achieve 500,000 cells/mL. Subsequently, 90 μL of cell suspension was seeded into each well of the assay plate. The next day, compounds were prepared: starting from 8 mM, 3-fold serial dilutions were performed in DMSO for a total of 8 points, then 500 nL was transferred to the compound plate using Echo. The compounds were then diluted with 40 μL of medium to 10× final concentration, and 10 μL was transferred to the cell plate and incubated at 37° C. for 30 minutes. Subsequently, 10 nL of DHT at a final concentration of 10 nM was transferred to each well of the assay plate using TECAN. After 24 hours of incubation, 100 μL of Steady-Glo was added to the assay plate and read on an Envision reader. Data were determined and analyzed using GraphPad Prism.

The target in assay [2] is T2, AR(T877A) (Homo sapiens, UniProt P10275, T878A).
T2 construct: expressed in transfected cells; host or cells: HEK293
T2 sequence (P10275 1-920 T878A): T1 sequence (P10275 1-920 W742L) with L742W, T878A
Briefly: Mutant AR antagonistic activity test, T877A (reporter gene in HEK293 cells). In kind it is cell-based. As to conditions: for IC50: HEK293 cells, DHT 10 nM, 24 hours, read-out: T877A IC50(nM) 1st gen AR antagonist resistant mutation. As to the method:
as §1
(In general: In a reporter assay the amount or activity of a reporter protein is the signal.)

For assay [3], the system named is androgen-dependent organs. Briefly: Hershberger assay, in vivo anti-androgenic activity. The arrangement: species or system Sprague-Dawley rats. Particulars: castrated male rats, 0.4 mg/kg testosterone propionate, 20 mg/kg QD oral, 10 days. As to the method: The Hershberger assay was used to detect the in vivo anti-androgenic signal transduction activity of the compounds of the present invention. In this assay, compounds of the present invention (14, 33 and 37) were administered to prepubertal castrated male Sprague-Dawley rats in the presence of 0.4 mg/kg testosterone propionate (TP), and the weights of androgen-dependent organs were measured. Dosing continued for 10 days, and measurements were made 24 hours after the last dose. The degree of AR antagonism and subsequent organ growth inhibition was evaluated by comparison with castrated controls. The test compounds were orally administered at 20 mg/kg QD and the endpoint evaluation was performed by measuring the weight changes of 2 androgen-sensitive organs (ASO): seminal vesicles with coagulating glands (SVCG) and ventral prostate (VP). Enzalutamide (ENZ) was used as a positive control.

Numbering of substitutions follows the chain as printed.

The term IC50 denotes the concentration that gives 50% inhibition. For `Cc1cn(C2=CCC3C4CC=C5C[C@@H](NC(=O)c6ccc(F)cc6)CC[C@]5(C)C4CC[C@]23C)cn1` (stereo partly drawn) [Compound 33, N-((3S,10R,13S)-17-(4-methyl-1H-imidazol-1-yl)-10,13-dimethyl-2,3,4,7,8,9,10,11,12,13,14,15-dodecahydro-1H-cyclopenta[a]phenanthren-3-yl)-4-fluorobenzamide], the half-maximal inhibitory concentration (IC50) in assay [1] was 371 nM. Moreover, the concentration for half-maximal inhibition (IC50) in assay [2] was determined as 79.8 nM. In addition, the “T877A antagonistic activity, fold improvement compared to enzalutamide” value in assay [2] (ratio to enzalutamide IC50) came out at 1.4 fold. In assay [3], the “Growth of androgen-dependent organs (SVCG and VP weight) compared to the castration group” value (from here on “Growth … compared to the castration group”) is recorded as “significantly inhibited the growth of androgen-dependent organs”; the “In vivo anti-androgenic activity compared with enzalutamide” value is “activity comparable to enzalutamide”.

Take `Cc1cn(C2=CCC3C4CC=C5C[C@@H](NC(=O)c6ccc(S(C)(=O)=O)cc6)CC[C@]5(C)C4CC[C@]23C)cn1` (stereo partly drawn) [Compound 35, N-((3S,10R,13S)-17-(4-methyl-1H-imidazol-1-yl)-10,13-dimethyl-2,3,4,7,8,9,10,11,12,13,14,15-dodecahydro-1H-cyclopenta[a]phenanthren-3-yl)-4-(methylsulfonyl)benzamide]: the figures for the concentration for half-maximal inhibition (IC50) in assay [1] and in assay [2] were 259 nM and 462 nM, respectively. The “W741L antagonistic activity, fold improvement compared to enzalutamide” value in assay [1] (ratio to enzalutamide IC50) was 4.0 fold.

For the compound `Cc1cn(C2=CCC3C4CC=C5C[C@@H](NC(=O)c6ccc(F)cc6F)CC[C@]5(C)C4CC[C@]23C)cn1` (stereo partly drawn) [Compound 37, N-((3S,10R,13S)-17-(4-methyl-1H-imidazol-1-yl)-10,13-dimethyl-2,3,4,7,8,9,10,11,12,13,14,15-dodecahydro-1H-cyclopenta[a]phenanthren-3-yl)-2,4-difluorobenzamide], the concentration for half-maximal inhibition (IC50) in assay [1] came to 413 nM. Also, the IC50 in assay [2] was 281 nM. In assay [3], the “Growth … compared to the castration group” value is “significantly inhibited the growth of androgen-dependent organs”; the “In vivo anti-androgenic activity compared with enzalutamide” value was “activity comparable to enzalutamide”.

Turning to `Cc1cn(C2=CCC3C4CC=C5C[C@@H](NC(=O)c6ccncc6)CC[C@]5(C)C4CC[C@]23C)cn1` (stereo partly drawn) [Compound 14, N-((3S,10R,13S)-10,13-dimethyl-17-(4-methyl-1H-imidazol-1-yl)-2,3,4,7,8,9,10,11,12,13,14,15-dodecahydro-1H-cyclopenta[a]phenanthren-3-yl)isonicotinamide], in assay [1], the IC50 came to 490 nM. Moreover, the IC50 in assay [2] is 209 nM. Further, in assay [3], the “Growth … compared to the castration group” value is reported as “significantly inhibited the growth of androgen-dependent organs”; the “In vivo anti-androgenic activity compared with enzalutamide” value is reported as “activity comparable to enzalutamide”.

For the origin of these results see patent US20250073249A1, “STEROID COMPOUND, AND PREPARATION METHOD THEREFOR AND USE THEREOF” (SHANGHAI INSTITUTE OF MATERIA MEDICA, CHINESE ACADEMY OF …, priority 2022, published 2025).
